Measurements as given in patent publication EP4667458A1 (Kanaph Therapeutics Inc., priority 2023, dated 2024).
Read-outs that look alike come from different tables or passages of the source.

Key:
SOS1 = biological target: T1, SOS1 (Homo sapiens, UniProt Q07889); assay: SOS-catalyzed nucleotide exchange assay (HTRF, SOS1-mediated GTP loading of KRAS G12D); format: biochemical; details: GST-KRAS G12D, HIS-SOS1cat, EDA-GTP-DY-647P1; compound 128 pM to 10 µM; read-out: SOS-catalyzed nucleotide exchange assay (IC50 range, Grade)
T1 construct: adding equal amounts of HIS-SOS1cat (160 nM; Cytoskeleton, US); His; purchased Cytoskeleton, US
T1 sequence (Q07889 564-1049 limits assumed): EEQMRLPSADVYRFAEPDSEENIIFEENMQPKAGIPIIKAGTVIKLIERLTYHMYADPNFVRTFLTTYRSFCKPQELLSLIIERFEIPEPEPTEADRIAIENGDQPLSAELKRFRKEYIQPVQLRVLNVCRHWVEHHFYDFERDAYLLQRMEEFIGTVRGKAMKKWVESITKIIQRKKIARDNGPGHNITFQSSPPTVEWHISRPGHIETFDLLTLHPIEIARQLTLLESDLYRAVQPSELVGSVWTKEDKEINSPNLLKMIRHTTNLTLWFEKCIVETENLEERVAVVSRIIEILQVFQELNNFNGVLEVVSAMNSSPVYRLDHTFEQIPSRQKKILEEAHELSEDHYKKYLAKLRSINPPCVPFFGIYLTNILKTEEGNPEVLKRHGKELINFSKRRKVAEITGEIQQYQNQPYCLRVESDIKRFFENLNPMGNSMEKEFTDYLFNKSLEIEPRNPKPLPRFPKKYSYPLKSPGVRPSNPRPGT
Outline: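 SOS1cat (HIS-tagged) preincubated 10 min at room temperature with compound (128 pM-10 µM), then GST-KRAS G12D with anti-GST terbium added; GTP loading tracked as HTRF with a DY-647P1 GTP analogue after 30 min, buffer HEPES pH 7.4. GEF-free wells for normalization; IC50 derived.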

KRAS^G12C::SOS1 = biological target: T2, KRAS^G12C::SOS1 (Homo sapiens, UniProt Q07889); assay: KRAS G12C::SOS1 protein-protein interaction (PPI) inhibition assay (HTRF binding kit)
T2 sequence (Q07889 1-1333): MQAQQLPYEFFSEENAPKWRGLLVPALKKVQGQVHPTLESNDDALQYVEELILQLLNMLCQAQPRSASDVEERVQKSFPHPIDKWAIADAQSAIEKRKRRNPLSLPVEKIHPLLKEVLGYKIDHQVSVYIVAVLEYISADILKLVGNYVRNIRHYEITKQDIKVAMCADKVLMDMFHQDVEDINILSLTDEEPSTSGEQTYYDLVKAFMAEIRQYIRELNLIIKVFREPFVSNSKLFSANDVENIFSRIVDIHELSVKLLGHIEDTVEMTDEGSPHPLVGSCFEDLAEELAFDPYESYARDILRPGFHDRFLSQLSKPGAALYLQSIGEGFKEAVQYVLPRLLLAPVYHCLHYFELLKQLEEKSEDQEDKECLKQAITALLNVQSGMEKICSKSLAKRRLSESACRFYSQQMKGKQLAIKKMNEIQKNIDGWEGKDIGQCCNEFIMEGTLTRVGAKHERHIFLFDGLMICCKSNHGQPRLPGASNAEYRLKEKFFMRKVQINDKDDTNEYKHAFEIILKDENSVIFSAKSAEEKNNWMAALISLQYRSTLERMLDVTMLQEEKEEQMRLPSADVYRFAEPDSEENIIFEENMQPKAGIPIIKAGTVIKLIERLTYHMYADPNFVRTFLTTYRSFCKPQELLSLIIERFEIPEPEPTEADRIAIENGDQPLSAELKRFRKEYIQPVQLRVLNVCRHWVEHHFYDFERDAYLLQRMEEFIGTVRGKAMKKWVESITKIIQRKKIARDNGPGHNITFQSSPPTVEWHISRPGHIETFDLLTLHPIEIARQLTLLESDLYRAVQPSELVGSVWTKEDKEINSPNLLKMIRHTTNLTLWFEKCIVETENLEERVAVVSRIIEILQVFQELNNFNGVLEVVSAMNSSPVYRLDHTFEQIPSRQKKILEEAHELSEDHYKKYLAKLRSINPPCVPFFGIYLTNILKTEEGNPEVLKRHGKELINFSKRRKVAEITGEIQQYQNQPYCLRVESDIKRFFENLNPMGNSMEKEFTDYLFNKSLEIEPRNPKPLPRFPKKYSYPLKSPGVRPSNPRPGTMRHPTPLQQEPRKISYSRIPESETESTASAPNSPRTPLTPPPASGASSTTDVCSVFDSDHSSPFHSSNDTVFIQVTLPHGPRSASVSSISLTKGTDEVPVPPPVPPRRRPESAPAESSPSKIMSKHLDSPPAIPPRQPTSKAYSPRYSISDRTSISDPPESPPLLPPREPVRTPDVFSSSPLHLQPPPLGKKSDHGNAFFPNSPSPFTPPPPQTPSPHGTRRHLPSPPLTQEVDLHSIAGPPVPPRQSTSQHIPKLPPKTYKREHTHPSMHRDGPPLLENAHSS

Question: What does the source list for `C[C@@H](NC(=O)c1ccc(=O)n(-c2ccc(F)c(-c3cnnn3C)c2)n1)c1cccc(C(F)(F)F)c1F` [Example B06, N-[(R)-1-[2-fluoro-3-(trifluoromethyl)phenyl]ethyl]-1-[4-fluoro-3-(1-methyl-1H-1,2,3-triazol-5-yl)phenyl]-6-oxo-1,6-dihydro-3-pyridazinecarboxamide]?
Answer: IC50 (SOS1): < 1000 nM; IC50 (KRAS^G12C::SOS1): < 1000 nM

Question: Which results are given for `[2H]C([2H])([2H])n1nncc1-c1cncc(-n2nc(C(=O)N[C@H](C)c3cccc(C(F)(F)F)c3F)ccc2=O)c1` [Example B11, N-[(1R)-1-[2-fluoro-3-(trifluoromethyl)phenyl]ethyl]-6-oxo-1-[5-[3-(trideuteriomethyl)triazol-4-yl]-3-pyridyl]pyridazine-3-carboxamide]?
Answer: IC50 (SOS1): < 1000 nM; IC50 (KRAS^G12C::SOS1): < 1000 nM

Question: How did the IC50 (SOS1) turn out when `C[C@@H](NC(=O)c1ccc(=O)n(-c2cccc(-c3ccnn3C(F)F)c2)n1)c1cc(N)cc(C(F)(F)F)c1` [Example 149, N-[(1R)-1-[3-amino-5-(trifluoromethyl)phenyl]ethyl]-1-[3-[2-(difluoromethyl)pyrazol-3-yl]phenyl]-6-oxo-pyridazine-3-carboxamide] was run?
Answer: < 1000 nM

Question: What about the IC50 (KRAS^G12C::SOS1) of the same compound?
Answer: < 1000 nM

Question: What does the source list for `C[C@@H](NC(=O)c1ccc(=O)n(-c2cncc(-c3cnnn3C)c2)c1)c1cccc(C(F)(F)F)c1F` [Example B08, N-[(1R)-1-[2-fluoro-3-(trifluoromethyl)phenyl]ethyl]-1-[5-(3-methyltriazol-4-yl)-3-pyridyl]-6-oxo-pyridine-3-carboxamide]?
Answer: IC50 (SOS1): < 1000 nM; IC50 (KRAS^G12C::SOS1): < 1000 nM

Question: With `C[C@@H](NC(=O)c1ccc(=O)n(-c2cncc(-c3cnnn3C)c2)n1)c1cccc(C(F)(F)CF)c1F` [Example B09, (R)-N-(1-(2-fluoro-3-(1,1,2-trifluoroethyl)phenyl)ethyl)-1-(5-(1-methyl-1H-1,2,3-triazol-5-yl)pyridin-3-yl)-6-oxo-1,6-dihydropyridazine-3-carboxamide] as the compound, how does the IC50 (SOS1) read?
Answer: < 1000 nM

Question: And the IC50 (KRAS^G12C::SOS1)?
Answer: < 1000 nM

Question: Which results are given for `C[C@@H](NC(=O)c1ccc(=O)n(-c2ccccc2F)n1)c1cccc(I)c1F` [Example 144, N-[(1R)-1-(2-fluoro-3-iodo-phenyl)ethyl]-1-(2-fluorophenyl)-6-oxo-pyridazine-3-carboxamide]?
Answer: IC50 (SOS1): 1000 to 10000 nM; IC50 (KRAS^G12C::SOS1): < 1000 nM

Question: For “N-[(1R)-1-[3-amino-5-(trifluoromethyl)phenyl]ethyl]-6-oxo-1-[4-(trifluoromethoxy)phenyl]pyridazine-3-carboxamide [Example 154]”, which IC50 (SOS1) is on record?
Answer: 1000 to 10000 nM

Question: What about the IC50 (KRAS^G12C::SOS1; read-out: KRAS ^G12C::SOS1 PPI assay (IC50 range, Grade), maximum concentration 3 µM, 8 concentrations, three replicates) of the same compound?
Answer: < 1000 nM

Question: With `COc1ccc(-n2cc(C(=O)N[C@H](C)c3cccc(C(F)(F)CO)c3F)ccc2=O)c(F)c1OC` [Example 140, N-[(1R)-1-[3-(1,1-difluoro-2-hydroxy-ethyl)-2-fluoro-phenyl]ethyl]-1-(2-fluoro-3,4-dimethoxy-phenyl)-6-oxo-pyridine-3-carboxamide] as the compound, how does the IC50 (SOS1) read?
Answer: < 1000 nM

Question: And the IC50 (KRAS^G12C::SOS1)?
Answer: < 1000 nM

Question: How did the IC50 (SOS1) turn out when `C[C@@H](NC(=O)c1ccc(=O)n(-c2cccc3cc[nH]c23)n1)c1cc(N)cc(C(F)(F)F)c1` [Example 155, N-[(1R)-1-[3-amino-5-(trifluoromethyl)phenyl]ethyl]-1-(1H-indole-7-yl)-6-oxo-pyridazine-3-carboxamide] was run?
Answer: 1000 to 10000 nM

Question: And the IC50 (KRAS^G12C::SOS1)?
Answer: < 1000 nM

Question: Which IC50 (SOS1) does the source give for `Cc1cc(C(=O)N[C@H](C)c2cc(N)cc(C(F)F)c2)nn(-c2cncc(-c3cnnn3C)c2)c1=O` [Example B07, N-[(1R)-1-[3-amino-5-(difluoromethyl)phenyl]ethyl]-5-methyl-1-[5-(3-methyltriazol-4-yl)-3-pyridyl]-6-oxo-pyridizine-3-carboxamide] here?
Answer: < 1000 nM

Question: What about the IC50 (KRAS^G12C::SOS1) of the same compound?
Answer: < 1000 nM

Question: Which IC50 (SOS1) does the source give for `C[C@@H](NC(=O)c1ccc(=O)n(-c2cccnc2F)n1)c1cccc(C(F)(F)CO)c1F` [Example 141, N-[(1R)-1-[3-(1,1-difluoro-2-hydroxy-ethyl)-2-fluorophenyl]ethyl]-1-(2-fluoro-3-pyridyl)-6-oxo-pyridazine-3-carboxamide] here?
Answer: < 1000 nM

Question: What about the IC50 (KRAS^G12C::SOS1) of the same compound?
Answer: < 1000 nM

Question: With `Cc1c([C@@H](C)NC(=O)c2ccc(=O)n(-c3cncc(-c4ccnn4C)c3)n2)cc(N)cc1C(F)(F)F` [Example B05, N-[(1R)-1-[5-amino-2-methyl-3-(trifluoromethyl)phenyl]ethyl]-1-[5-(2-methylpyrazol-3-yl)-3-pyridyl]-6-oxo-pyridazine-3-carboxamide] as the compound, how does the IC50 (SOS1) read?
Answer: < 1000 nM

Question: What about the IC50 (KRAS^G12C::SOS1) of the same compound?
Answer: < 1000 nM

Question: What does the source list for `COc1ccc(-n2nc(C(=O)N[C@H](C)c3cccc(C(F)(F)CO)c3F)ccc2=O)c(OC)c1` [Example 151, N-[(1R)-1-[3-(1,1-difluoro-2-hydroxy-ethyl)-2-fluoro-phenyl]ethyl]-1-(2,4-dimethoxyphenyl)-6-oxo-pyridazine-3-carboxamide]?
Answer: IC50 (SOS1): < 1000 nM; IC50 (KRAS^G12C::SOS1): < 1000 nM

Question: For `CC(C)Oc1ccc(-n2nc(C(=O)N[C@H](C)c3cc(N)cc(C(F)(F)F)c3)ccc2=O)cc1` [Example 142, N-[(1R)-1-[3-amino-5-(trifluoromethyl)phenyl]ethyl]-1-(4-isopropoxyphenyl)-6-oxo-pyridazine-3-carboxamide], which IC50 (SOS1) is on record?
Answer: < 1000 nM

Question: What about the IC50 (KRAS^G12C::SOS1) of the same compound?
Answer: < 1000 nM

Question: With `C[C@@H](NC(=O)c1ccc(=O)n(-c2cccc(-c3ccnn3C(F)F)c2)n1)c1cccc(C(F)(F)CO)c1F` [Example 150, N-[(1R)-1-[3-(1,1-difluoro-2-hydroxy-ethyl)-2-fluoro-phenyl]ethyl]-1-[3-[2-(difluoromethyl)pyrazol-3-yl]phenyl]-6-oxo-pyridazine-3-carboxamide] as the compound, how does the IC50 (SOS1) read?
Answer: < 1000 nM

Question: What about the IC50 (KRAS^G12C::SOS1) of the same compound?
Answer: < 1000 nM

Question: With `C[C@@H](NC(=O)c1ccc(=O)n(-c2cccc(F)c2)n1)c1cc(N)cc(C(F)(F)F)c1` [Example 158, N-[(1R)-1-[3-amino-5-(trifluoromethyl)phenyl]ethyl]-1-(3-fluorophenyl)-6-oxo-pyridazine-3-carboxamide] as the compound, how does the IC50 (SOS1) read?
Answer: < 1000 nM

Question: And the IC50 (KRAS^G12C::SOS1)?
Answer: < 1000 nM

Question: How did the IC50 (SOS1) turn out when `COCc1ccccc1-n1nc(C(=O)N[C@H](C)c2cc(N)cc(C(F)(F)F)c2)ccc1=O` [Example 157, N-[(1R)-1-[3-amino-5-(trifluoromethyl)phenyl]ethyl]-1-[2-(methoxymethyl)phenyl]-6-oxo-pyridazine-3-carboxamide] was run?
Answer: 1000 to 10000 nM

Question: What about the IC50 (KRAS^G12C::SOS1) of the same compound?
Answer: 1000 to 10000 nM

Question: With `Cc1cc(C(=O)N[C@H](C)c2cccc(C(F)(F)F)c2F)cn(-c2cncc(-c3cnnn3C)c2)c1=O` [Example B10, (R)-N-(1-(2-fluoro-3-(trifluoromethyl)phenyl)ethyl)-3-methyl-5'-(1-methyl-1H-1,2,3-triazol-5-yl)-2-oxo-2H-[1,3'-bipyridine]-5-carboxamide] as the compound, how does the IC50 (SOS1) read?
Answer: < 1000 nM

Question: What about the IC50 (KRAS^G12C::SOS1) of the same compound?
Answer: < 1000 nM

Question: What does the source list for `C[C@@H](NC(=O)c1ccc(=O)n(-c2ccccc2CO)n1)c1cc(N)cc(C(F)(F)F)c1` [Example 156, N-[(1R)-1-[3-amino-5-(trifluoromethyl)phenyl]ethyl]-1-[2-(hydroxymethyl)phenyl]-6-oxo-pyridazine-3-carboxamide]?
Answer: IC50 (SOS1): 1000 to 10000 nM; IC50 (KRAS^G12C::SOS1): 1000 to 10000 nM
